Experiment [1] relates to E. cloacae ATCC BAA-1143 (AmpC). As to the kind of experiment: In vitro synergistic inhibitory concentration (SIC) assay. Format: cell-based. The conditions noted are these: Enterobacter cloacae, ATCCBAA1143, 37° C. 20 hours, read-out: minimum inhibitory concentration, used alone. On the procedure: (§1) 2) 30 μL dimethyl sulfoxide was added to columns 2-12 of the 96-V well plate. 60 μL prepared ceftazidime was added to column 1. 30 μL ceftazidime was transferred from column 1 to column 2 and mixed with a pipette. The same operation was continued until column 11, and 30 μL of the mixture in column 11 was discarded. This was the compound mother plate.
(§2) Mix the liquid in the mother plate with a pipette.
(§3) 4) One day before the experiment, the bacterial glycerol stock which was stored in a −80° C. refrigerator was streaked on a trypticase soy agar plate (TSA), and the plate was incubated in a 37° C. incubator overnight. On the day of the experiment, the monoclonal bacterial was suspended in physiological saline and the turbidity of which was adjusted to 0.5 McFarland standard, corresponding to 1×10^8 CFU/ml. This suspension was diluted 100-fold to 1×10^6 CFU/mL with caton-adjusted Mueller-Hnton broth (CAMHB), which was used as an inoculation fluid.
(§4) 5) a 96-U plate was used as a test plate. Firstly, adding 98 μL CAMHB to each well of the test plate and transferring 2 μL solution in the mother plate to the test plate. 100 μL inoculation fluid was added to each well of the test plate.
(§5) 6) The test plate was incubated at 37° C. for 20 hours.
(§6) The above-mentioned method was also used to determine the antibacterial activity of the test compound or the antibiotic when used alone.

Experiment [2] relates to K. pneumoniae ATCC 51504 (TEM-10). The description is as above. Format: cell-based. To be noted: Klebsiella pneumoniae, ATCC51504, 37° C. 20 hours, read-out: minimum inhibitory concentration, used alone. As to the method:
as §1, §2, §3, §4, §5, §6

The subject of experiment [3] is Klebsiella pneumoniae (ATCC BAA-1705, KPC-2). As to the kind of experiment: Mouse lung infection model. Type of experiment: in vivo, CD-1 mice. To be noted: ip, combined with ceftazidime. On the procedure: Female CD-1 mice of about 7 weeks old, weighing 26-28 g; cyclophosphamide was injected at a dose of 150 mg/kg 4 days before infection, and further 100 mg/kg 1 day before infection; the bacteria infected was Klebsiella pneumoniae (ATCC BAA-1705, KPC-2). Compound 1 and the reference compound OP-0595 were synthesized in the laboratory.
Female CD-1 mice were infected with Klebsiella pneumoniae by intranasal instillation. Each mouse was instilled with 50 μL bacterial fluid through nasal cavity at a dose of 3.14E+07 CFU per mouse. At 2 h, 4 h, 6 h and 8 h after infection, each group of mice were treated with a corresponding compound or combined compounds by intraperitoneal injection.
At 10 h after infection, the mice in group 1, 2 and 3 were euthanized, and the lung was taken out and placed in a 50 mL centrifuge tube containing 10 mL sterile normal saline, the tube was placed on wet ice and transferred to BSL-2 laboratory for CFU counting. At 20 h after infection, the mice in group 4, 5 and 6 were euthanized and treated according to the same procedure.
The lungs were ground with an IKA T10 homogenizer (the maximum speed was 20S, repeated once). […] After 24 hours, the plate was taken out and the number of single colonies grown in each homogenate with a gradient dilution, and the amount of bacterial load in the lung of each mouse was calculated.

Molecules are shown by their SMILES.

With `N=C(N)NOCCONC(=O)[C@@H]1CC[C@@H]2CN1C(=O)N2OS(=O)(=O)O` [Compound 1], the MIC in experiment [1] is 16 µg/mL; in experiment [2], over 128 µg/mL. In addition, the “reduction of the amount of bacterial load in the lung compared with the reference group of OP-0595” value in experiment [3] (female CD-1 mice, K. pneumoniae ATCC BAA-1705 (KPC-2), 25/6.25 mpk and 50/12.5 mpk) is 0.5-1.5 logs. For the same compound, the “potency compared with reference compound OP-0595” value in experiment [3] (mouse lung infection model) was “significantly more potent”.

The values are drawn from patent US10738051B2, “β-lactamase inhibitors” (priority 2016, dated 2020).
